Each structure is given as a SMILES string.

The values that follow come from patent publication US7459480B2, “Benzodioxepine derivatives” (Hoffmann-La Roche Inc., priority 2003, dated 2008).

The target in this assay is T1, human ACCβ (Homo sapiens, UniProt O00763).
T1 construct: The cloning of the full length human muscle-type ACCβ cDNA and expression in HEK293 cells; made in house; host or cells: HEK293 cells (ATCC CRL-1573), transfected with plasmid pRF33D
T1 sequence (O00763 whole entry): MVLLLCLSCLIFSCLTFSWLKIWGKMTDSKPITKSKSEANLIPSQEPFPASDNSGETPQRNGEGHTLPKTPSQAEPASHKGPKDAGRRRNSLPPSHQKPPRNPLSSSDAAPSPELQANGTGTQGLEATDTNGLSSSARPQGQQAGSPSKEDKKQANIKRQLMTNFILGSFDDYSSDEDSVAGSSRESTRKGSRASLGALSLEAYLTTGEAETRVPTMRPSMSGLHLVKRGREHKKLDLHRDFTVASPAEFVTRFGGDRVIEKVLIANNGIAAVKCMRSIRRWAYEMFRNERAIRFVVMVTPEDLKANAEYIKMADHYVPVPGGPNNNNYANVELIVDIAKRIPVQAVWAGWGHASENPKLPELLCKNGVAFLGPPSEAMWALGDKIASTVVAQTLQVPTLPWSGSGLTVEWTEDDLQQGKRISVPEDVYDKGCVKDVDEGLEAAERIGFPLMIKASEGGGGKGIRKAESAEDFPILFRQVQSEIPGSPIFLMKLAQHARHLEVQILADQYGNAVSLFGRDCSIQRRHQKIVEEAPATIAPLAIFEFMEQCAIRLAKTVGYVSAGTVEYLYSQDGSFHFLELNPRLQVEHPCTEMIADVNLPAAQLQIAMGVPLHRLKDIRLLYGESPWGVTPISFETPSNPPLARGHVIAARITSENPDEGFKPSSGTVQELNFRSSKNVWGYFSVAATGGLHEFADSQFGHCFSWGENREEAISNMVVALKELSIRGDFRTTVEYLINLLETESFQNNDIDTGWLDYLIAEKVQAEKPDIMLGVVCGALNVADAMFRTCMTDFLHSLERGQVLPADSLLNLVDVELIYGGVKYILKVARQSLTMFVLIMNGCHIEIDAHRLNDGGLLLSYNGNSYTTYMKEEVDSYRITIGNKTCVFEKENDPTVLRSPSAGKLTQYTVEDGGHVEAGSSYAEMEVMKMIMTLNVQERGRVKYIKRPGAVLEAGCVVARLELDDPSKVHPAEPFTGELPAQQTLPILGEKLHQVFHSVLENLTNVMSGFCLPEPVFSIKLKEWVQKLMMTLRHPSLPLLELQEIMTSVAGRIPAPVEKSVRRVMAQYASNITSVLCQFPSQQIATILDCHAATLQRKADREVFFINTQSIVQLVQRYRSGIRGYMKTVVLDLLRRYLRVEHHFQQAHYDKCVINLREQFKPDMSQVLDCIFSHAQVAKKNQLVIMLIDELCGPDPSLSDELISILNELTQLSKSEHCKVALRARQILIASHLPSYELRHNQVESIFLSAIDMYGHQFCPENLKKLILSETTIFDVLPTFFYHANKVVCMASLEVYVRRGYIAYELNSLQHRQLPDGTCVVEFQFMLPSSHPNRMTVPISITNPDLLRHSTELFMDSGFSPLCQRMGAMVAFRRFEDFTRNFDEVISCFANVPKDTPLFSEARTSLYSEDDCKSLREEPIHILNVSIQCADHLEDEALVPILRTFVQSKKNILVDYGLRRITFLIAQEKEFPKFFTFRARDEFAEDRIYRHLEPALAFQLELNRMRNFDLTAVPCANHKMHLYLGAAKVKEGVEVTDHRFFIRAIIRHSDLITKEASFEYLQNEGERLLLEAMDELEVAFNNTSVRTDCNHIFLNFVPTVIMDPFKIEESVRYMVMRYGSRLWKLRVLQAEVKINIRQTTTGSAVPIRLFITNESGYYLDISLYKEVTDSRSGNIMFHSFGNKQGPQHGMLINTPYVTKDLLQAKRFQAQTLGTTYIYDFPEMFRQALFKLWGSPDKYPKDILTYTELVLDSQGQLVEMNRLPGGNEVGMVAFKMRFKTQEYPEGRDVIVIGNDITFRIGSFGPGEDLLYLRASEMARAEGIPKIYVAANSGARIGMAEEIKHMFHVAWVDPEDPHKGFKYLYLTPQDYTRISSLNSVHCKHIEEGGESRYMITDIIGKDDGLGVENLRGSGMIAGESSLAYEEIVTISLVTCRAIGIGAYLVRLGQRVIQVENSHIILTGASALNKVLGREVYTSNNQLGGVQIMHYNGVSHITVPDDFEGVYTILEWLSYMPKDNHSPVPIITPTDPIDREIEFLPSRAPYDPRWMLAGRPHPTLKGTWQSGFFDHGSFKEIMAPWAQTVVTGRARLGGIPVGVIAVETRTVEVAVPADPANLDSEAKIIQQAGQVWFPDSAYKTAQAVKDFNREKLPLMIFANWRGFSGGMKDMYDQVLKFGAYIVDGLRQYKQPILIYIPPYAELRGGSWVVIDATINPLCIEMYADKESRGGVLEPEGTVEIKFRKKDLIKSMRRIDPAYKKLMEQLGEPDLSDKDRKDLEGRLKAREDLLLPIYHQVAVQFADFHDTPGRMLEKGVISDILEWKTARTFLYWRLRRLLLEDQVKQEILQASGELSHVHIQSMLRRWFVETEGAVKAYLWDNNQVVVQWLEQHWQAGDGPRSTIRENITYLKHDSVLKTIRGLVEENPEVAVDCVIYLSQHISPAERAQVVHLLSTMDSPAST
Kind of assay: Radiometric ACCβ enzyme inhibition assay ([14C]NaHCO3 incorporation into malonyl-CoA). Format: biochemical. The conditions noted are these: human muscle-type ACCβ expressed in HEK293 cells; saturating substrate concentrations; 37° C., 45 min. How it is done: Production and Characterization of Human ACCβ Enzyme, Its Use in ACC Activity Assays and for Inhibition Studies
The cloning of the full length human muscle-type ACCβ cDNA and expression in HEK293 cells (ATCC, # CRL-1573) was performed as follows. The ACCβ cDNA was amplified by the polymerase chain reaction (PCR) and was cloned using standard recombinant DNA techniques. The PCR reaction was performed with the Expand Long Template PCR System (Roche Molecular Biochemicals, # 1 681 8340) and 0.5 ng of cDNA from human skeletal muscle as template. The primers used for PCR amplification were designed on the basis of the published sequence of the human ACCβ cDNA isolated from a human liver cDNA library (Abul-Elheiga et al. J. Biol. Chem. 272, 10669-10677, 1997). The sequence of the forward primer ACCB1 was 5′-[…]-3′; it includes a NheI restriction cleavage site for subcloning and a Kozak translation initiation consensus sequence preceding the ATG start codon. The sequence of the reverse primer ACCB8 was 5′-[…]-3′; it includes a stop codon and a XhoI restriction cleavage site for subcloning. The amplified DNA fragment of approximately 7.4 kb was cloned into a mammalian expression vector. The resulting plasmid isolates, pRF33A, B, C, D, and E were individually transfected in human embryonic kidney 293 cells (HEK293) using a standard lipid transfection method. Cell extracts of transfected cells were prepared in a lysis buffer containing 0.4 mg/ml digitonin and enzyme activity was determined using a radiometric ACC activity assay as described below. Plasmid pRF33D gave the highest activity and was chosen for large scale transfections of HEK293 cells and enzyme purification.
Since ACC enzyme activities in crude cell lysates were very low, enrichment of ACCβ enzyme expressed in HEK293 cells was achieved by a single anion exchange chromatography step. Cell lysates were run over a 5 ml Econo Pac High Q column (Bio-Rad, # 732-0027). Bound proteins were eluted by a gradient of NaCl from 0 to 1 M in 50 mM Tris-HCl, pH 7.5, 1 mM DTT, 5% glycerol. Fractions containing high ACCβ enzyme activity were pooled and stored at −20° C.
Standard ACCβ enzyme assays, in a total volume of 100 μl, contained 50 mM HEPES-KOH, pH 7.5, 10 mM K-citrate, 10 mM MgSO4, 1 mM ATP, 0.1 mM DTT, 2% DMSO, 0.1 mg/ml fatty acid-free BSA, 0.2 mM acetyl-CoA, 2 mM KHCO3, 0.2 mM [^14C]NaHCO3 (50-60 mCi/mmol) and cell lysate or purified ACCβ enzyme. Reactions were incubated at 37° C. for 45 min. and stopped by the addition of 50 μl of 2 N HCl. Terminated reactions were incubated at 50° C. over night to evaporate non-incorporated [^14C]NaHCO3. [^14C]-labeled malonyl-CoA reaction product was quantitated by liquid scintillation counting after the addition of 20 μl of Microscint 20 (Canberra Packard, # 6013621) on a TopCount NXT microplate scintillation counter (Canberra Packard).
Inhibition of ACCβ activity was determined at saturating substrate concentrations with two-fold serial dilutions of test compounds spanning a concentration range of at least two log units. IC50 values were calculated with the GraFit software (Erithacus Software Ltd.).
For `CC1(C)COc2ccc(C#Cc3ccc4c(c3)CCO4)cc2OC1` [Example 9, 7-(2,3-Dihydro-benzofuran-5-ylethynyl)-3,3-dimethyl-3,4-dihydro-2H-benzo[b][1,4]dioxepine], the IC50 is 15.1 µM.

Compound `CCOc1ccc(C#Cc2ccc3c(c2)OCC(C)(C)CO3)cc1` [Example 7, 7-(4-Ethoxy-phenylethynyl)-3,3-dimethyl-3,4-dihydro-2H-benzo[b][1,4]dioxepine] yielded an IC50 of 1.44 µM. This IC50 lies about 10-fold lower than the previous one.

Take `COc1cccc(C#Cc2ccc3c(c2)OCC(C)(C)CO3)c1` [Example 5, 7-(3-Methoxy-phenylethynyl)-3,3-dimethyl-3,4-dihydro-2H-benzo[b][1,4]dioxepine]: half-maximal inhibition (IC50) required 42.2 µM.

As to `CCOC(=O)c1ccc(C#Cc2ccc3c(c2)OCC(C)(C)CO3)cn1` [Example 13, 5-(3,3-Dimethyl-3,4-dihydro-2H-benzo[b][1,4]dioxepin-7-ylethynyl)-pyridine-2-carboxylic acid ethyl ester], the IC50 was 5.41 µM. This IC50 lies about 7.8-fold lower than the previous one.

`CCOC(=O)c1cccc(C#Cc2ccc3c(c2)OCC(C)(C)CO3)c1` [Example 15, 3-(3,3-Dimethyl-3,4-dihydro-2H-benzo[b][1,4]dioxepin-7-ylethynyl)-benzoic acid ethyl ester] returned an IC50 of 3.11 µM.

As for `Cn1nnc(-c2ccc(C#Cc3ccc4c(c3)OCC(C)(C)CO4)cc2)n1` [Example 14, 5-[4-(3,3-Dimethyl-3,4-dihydro-2H-benzo[b][1,4]dioxepin-7-ylethynyl)-phenyl]-2-methyl-2H-tetrazole], it took 11.2 µM to reach half-maximal inhibition (IC50).

For the compound `CCCOc1ccc(C#Cc2ccc3c(c2)OCC(C)(C)CO3)cc1` [Example 21, 3,3-Dimethyl-7-(4-propoxy-phenylethynyl)-3,4-dihydro-2H-benzo[b][1,4]dioxepine], the IC50 came out at 0.01 µM.

Regarding `CCOC(=O)c1ccc(OCc2ccc3c(c2)OCC(C)(C)CO3)cc1` [Example 23, 4-(3,3-Dimethyl-3,4-dihydro-2H-benzo[b][1,4]dioxepin-7-ylmethoxy)-benzoic acid ethyl ester], the IC50 came out at 0.25 µM.
